# According to US10525016B2, “Nutritional compositions containing an elevated level of inositol and uses thereof” (Mead Johnson Nutrition Company, priority 2015, dated 2020):
# How the values were obtained:
# [1] = system: primary hippocampal neurons; assay: synaptic development in primary hippocampal neurons (Bassoon/Homer immunostaining); format: cell-based, rats
# Protocol: Primary hippocampal neurons were prepared from rats at E18. In brief, dissected hippocampi were incubated in 0.05% trypsin at 37° C. for 20 minutes and plated at a density of ˜30,000 cells per coverslip. Dissociated cells were plated on poly-L-lysine and incubated in a cell culture incubator with 5.0% CO2. Cytosine arabinoside was added at a final concentration of 2 μM per well 2 days in vitro to prevent glia cell overgrowth. For studies of inositol, neurons were either grown in inositol-free medium or in inositol-free medium supplemented with 40 μm inositol. After day 4 in vitro, neurons were grown either in inositol-free medium or in inositol-free medium supplemented with 40 μm or 200 μM inositol. At the first time of treatment at 4 days in vitro, the entire medium was exchanged for fresh medium containing nutrients, or control medium without nutrients. At the time of subsequent nutrient additions, approximately ½ of the medium was exchanged and replaced with nutrient-containing medium or control medium without nutrients. Neurons were processed for immunostaining at 14 days in vitro, i.e. after 10 days of chronic treatment. […] We determined this both by automated quantitative immunostaining for the presynaptic marker Bassoon or excitatory postsynaptic Homer, as shown in FIGS. 6 and 7 (p<0.05). […] Further, the experiment supports that the size of postsynaptic sites is larger when inositol is added, indicating more efficient synaptic transmission (p<0.05) (see, FIG. 9). Confocal imaging was performed on a Leica TCS SPE DM2500 microscope equipped with one spectral PMT. Fluorochromes imaged include Alexa 488, Alexa 555, and Alexa 647 (Invitrogen). Green fluorescence represents Bassoon presynaptic, red Homer postsynaptic, blue MAP2 dendrites. […] There was noticeable lack of growth and synapses which was visible while imaging.
# oligodendrocytes (Oligo) = assay: inositol on purified oligodendroglial cultures: Oligo number (MBP staining); format: cell-based
# Protocol: FIG. 1 illustrates the functional implications of inositol in oligodendroglia survival and proliferation. Inositol was added to purified oligodendroglial cultures and cells were analyzed for effects on proliferation, survival and differentiation by immunohistochemistry under the fluorescent microscopy. OPCs were analyzed by staining with antibody against PDGFRa and visualized in green fluorescence; and oligodendrocytes with that against MBP in red. […] Depletion of inositol in the medium results in a fifty percent loss of oligodendrocyte precursor cells and thirty percent loss in oligodendrocytes.
# It may relate to the different mechanisms by which the OPCs respond to higher level of inositol and to the PDGF. Taken together, it is a novel finding that inositol at higher level promotes OPCs differentiation into mature Oligo.
# [2] = system: oligodendrocyte-DRG cocultures; assay: dose-response of inositol on oligodendrocyte-DRG coculture: myelin deposition and extent; format: cell-based
# Protocol: FIG. 4 illustrates the utility of dual-fluorescence labeling of OPCs in green and oligodendrocytes (Oligo) in red (left), as well as myelin deposition along the DRG neuronal fibers in red (right). It is to examine a dose-response of the inositol on oligodendrocyte-DRG coculture. Inositol was added to purified oligodendrocyte-DRG cocultures and cells were analyzed for effects on proliferation, survival differentiation and myelination. […] FIG. 5 illustrates the inositol effects on the control myelin extent in a dose-responsive manner. In the coculture system, neurofibers were included to validate the effects on myelin extent. […] Taken together, oligodendroglia rely on neuronal inositol for survival, proliferation, differentiation and the instruction of the generation of the appropriate number of […] internodes and the extent of wrapping.
# [3] = system: oligodendrocyte precursor cells (OPCs); assay: inositol on purified oligodendroglial cultures: OPC number (PDGFRa staining); format: cell-based
# Protocol: FIG. 1 illustrates the functional implications of inositol in oligodendroglia survival and proliferation. Inositol was added to purified oligodendroglial cultures and cells were analyzed for effects on proliferation, survival and differentiation by immunohistochemistry under the fluorescent microscopy. OPCs were analyzed by staining with antibody against PDGFRa and visualized in green fluorescence; and oligodendrocytes with that against MBP in red. […] Depletion of inositol in the medium results in a fifty percent loss of oligodendrocyte precursor cells and thirty percent loss in oligodendrocytes. […] A culture condition containing 40 μM inositol in which the count of the numbers of living OPCs was normalized as 1, as a baseline control. The beginnings of culture of OPCs are equal in terms of OPC number in culture dish in all conditions. Inositol was added to each OPC culture at zero, 200 nM, 1 μM, 10 μM, 40 μM, 100 μM, and 200 μM. Since the OPCs only respond to platelet-derived growth factor PDGF, a potent mitogen, for proliferation, the condition containing 40 μM inositol and PDGF was set as a positive control. […] Such a positive effect reached about 70% of that in the positive control. […] The results are graphically illustrated in FIG. 2
# [4] = increasing inositol from 40 μM to 200 μM, 14 days in vitro, p<0.05
# [5] = depletion of inositol in the medium
compound,measurement,setting,value
O[C@H]1[C@H](O)[C@@H](O)[C@H](O)[C@@H](O)[C@H]1O [inositol],health of the neurons (confocal imaging),[1]; depletion of inositol,poor health of the neurons
same,formation of functional synapses and overall neuron health,[1]; elevated level of inositol supplement,significantly enhances the formation of functional synapses and overall neuron health
same,"density of synaptic specializations, excitatory postsynaptic Homer",[1]; [4],substantially elevates
same,"density of synaptic specializations, presynaptic marker Bassoon",[1]; [4],substantially elevates
same,overall health of neurons (confocal imaging),[1]; inositol 40 μM,significantly promotes the overall health of neurons
same,overall health of neurons (confocal imaging),[1]; inositol 200 μM,significantly promotes the overall health of neurons
same,density of synaptic sites where both Bassoon and Homer co-localize,"[1]; inositol added, p<0.05",strong inositol effect
same,size of postsynaptic sites,"[1]; inositol added, p<0.05",larger
same,quantification of Oligo numbers vs baseline at 40 μM inositol,"oligodendrocytes (Oligo); absence of inositol, p<0.05",significantly decreased
same,loss in oligodendrocytes,oligodendrocytes (Oligo); [5],thirty
same,quantification of Oligo numbers vs baseline at 40 μM inositol,"oligodendrocytes (Oligo); inositol 200 nM, p<0.05",significantly decreased
same,Oligo numbers vs baseline at 40 μM inositol,"oligodendrocytes (Oligo); inositol 200 μM, p<0.05",rise and appear a statistical significance
same,myelin deposition along DRG neuronal fibers,[2]; absence of inositol,the amount of red labeling and appearance of myelin were inappropriate
same,myelin internodes formed (myelin extent),"[2]; absence of inositol, compared to control base medium at 40 μM",few myelin internodes were formed
same,myelin deposition along DRG neuronal fibers,"[2]; baseline condition, 40 μM inositol",myelin was wrapping around the neuronal fiber
same,myelin deposition along DRG neuronal fibers,[2]; inositol 200 μM,more myelin has been deposited along the neuronal fibers
same,myelin internodes formed (myelin extent),[2]; inositol 200 μM compared to the controls,more and longer myelin internodes
same,OPC and oligodendrocyte health,[3]; 200 μM compared to the 40 μM in the base medium,significantly increased
same,loss of oligodendrocyte precursor cells,[3]; [5],fifty
same,quantification of OPCs vs baseline control at 40 μM inositol,"[3]; inositol 200 nM, p<0.05",significantly decreased
same,quantification of OPCs vs baseline control at 40 μM inositol,"[3]; inositol 1 μM, p<0.05",significantly decreased
same,quantification of OPCs vs baseline control at 40 μM inositol,"[3]; inositol 10 μM, p<0.05",significantly decreased
same,positive effect on OPCs number relative to the positive control (40 μM inositol and PDGF),[3]; inositol 200 μM,about 70%
same,OPCs number vs baseline control at 40 μM inositol,"[3]; inositol 200 μM, p<0.05",significantly increased
same,quantification of OPCs vs baseline control at 40 μM inositol,"[3]; inositol at zero, p<0.05",significantly decreased
same,oligodendroglial survival,[3]; inositol supplementation in purified oligodendroglia cultures,significantly promotes oligodendroglial survival
same,overall response of OPC number to inositol,[3]; zero to 200 μM,dose-dependent manner
PDGF [reference compound],Oligo number vs baseline at 40 μM inositol,"oligodendrocytes (Oligo); condition containing PDGF with 40 μM inositol, p<0.05",decreased significantly
